The nature of data set [1]: human liver microsome (HLM) metabolic stability assay. The format is in vitro ADME. Particulars: human liver microsomes; % hepatic blood flow calculated from t1/2. In short, it runs like this: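 Compounds at 1 uM incubated with human liver microsomes plus NADPH at 37° C., sampled at 0, 5, 15, 30 and 60 min into cold acetonitrile and quantified by LC/MS/MS. t½ from the slope of ln % remaining vs time; CLint, CLh and % Qh derived from it (n=1).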

Data set [2] concerns the target T1, human soluble guanylate cyclase alpha 1 and beta 1 subunits (sGC) (Homo sapiens, UniProt Q02108+Q02153).
T1 construct: expressed in transfected cells; host or cells: Chinese hamster ovary (CHO) cells, stably transfected
T1 sequence (Q02108 1-690): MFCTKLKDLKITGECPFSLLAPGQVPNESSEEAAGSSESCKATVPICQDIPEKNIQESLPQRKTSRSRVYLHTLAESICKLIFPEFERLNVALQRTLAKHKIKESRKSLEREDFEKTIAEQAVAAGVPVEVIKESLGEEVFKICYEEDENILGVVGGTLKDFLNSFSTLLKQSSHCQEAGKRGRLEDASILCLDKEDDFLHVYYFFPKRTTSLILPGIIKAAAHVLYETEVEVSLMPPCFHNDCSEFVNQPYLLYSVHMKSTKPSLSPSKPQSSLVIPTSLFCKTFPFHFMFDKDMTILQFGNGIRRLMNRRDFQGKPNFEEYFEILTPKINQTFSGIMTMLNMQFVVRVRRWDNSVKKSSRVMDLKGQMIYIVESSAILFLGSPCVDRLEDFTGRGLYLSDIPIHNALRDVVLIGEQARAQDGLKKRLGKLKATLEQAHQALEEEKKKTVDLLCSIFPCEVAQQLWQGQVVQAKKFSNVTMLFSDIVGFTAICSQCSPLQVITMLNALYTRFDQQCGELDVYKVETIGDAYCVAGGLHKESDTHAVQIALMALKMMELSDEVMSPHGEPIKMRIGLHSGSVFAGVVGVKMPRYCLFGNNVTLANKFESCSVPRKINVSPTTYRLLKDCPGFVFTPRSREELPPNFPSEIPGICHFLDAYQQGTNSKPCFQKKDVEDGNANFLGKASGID
T1 sequence (Q02153 1-619): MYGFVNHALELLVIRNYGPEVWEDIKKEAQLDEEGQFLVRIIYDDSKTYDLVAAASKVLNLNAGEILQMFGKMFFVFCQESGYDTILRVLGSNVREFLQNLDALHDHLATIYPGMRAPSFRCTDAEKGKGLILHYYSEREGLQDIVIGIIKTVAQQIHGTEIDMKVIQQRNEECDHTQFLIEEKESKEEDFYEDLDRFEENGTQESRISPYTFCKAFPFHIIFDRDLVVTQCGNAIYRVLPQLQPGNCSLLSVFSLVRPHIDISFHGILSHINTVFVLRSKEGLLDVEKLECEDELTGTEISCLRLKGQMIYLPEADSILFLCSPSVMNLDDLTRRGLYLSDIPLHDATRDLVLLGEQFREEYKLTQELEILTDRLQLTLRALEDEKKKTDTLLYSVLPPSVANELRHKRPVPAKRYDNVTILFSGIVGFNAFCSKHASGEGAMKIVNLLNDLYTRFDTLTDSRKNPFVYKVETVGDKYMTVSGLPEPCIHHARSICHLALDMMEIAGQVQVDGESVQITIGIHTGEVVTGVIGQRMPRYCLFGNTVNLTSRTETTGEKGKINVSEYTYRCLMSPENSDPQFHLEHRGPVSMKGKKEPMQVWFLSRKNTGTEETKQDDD
Nature of the data set: sGC cellular activator assay (cGMP, HTRF). The format is cell-based. Particulars: CHO cells stably expressing human sGC alpha 1/beta 1, preincubated with 40 microM ODQ; cGMP readout; assay run with and without 50% human serum, Table 2 does not say which. The essentials: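 Heme-oxidized conditions: ODQ (40 microM, 1 h) pretreatment of CHO cells stably expressing human α1/β1 sGC, in buffer containing 0.1% BSA and IBMX.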
(In TR-FRET formats the signal depends on donor and acceptor labels being close together.)

Bounds are passed on as bounds.

The EC50 is the concentration at which the effect is half-maximal. In the case of `CCOc1c(C(=O)O)cnn1-c1cccc(-c2cccc(C)c2OCc2ccc3c(c2C)CN(C2CCOCC2)C3)n1` [Compound 119], the “HLM (% Qh)” value in data set [1] is reported as under 24 % Qh. For the same compound, in data set [2], the EC50 came out at 57 nM.
In the same order, the values of `COc1c(C(=O)O)cnn1-c1cccc(-c2cccc(C)c2OCc2ccc3c(c2C)CCN(C2COC2)CC3)n1` [Compound 176] are 28 % Qh and 9.7 nM.
Turning to `CCOc1c(C(=O)O)cnn1-c1cccc(-c2cccc(C)c2OCc2ccc3c(c2C)CCN(C[C@H]2CCCOC2)C3)n1` [Compound 153], the “HLM (% Qh)” value in data set [1] is on record as under 24 % Qh. Further, the EC50 in data set [2] amounted to 26 nM.
`COc1c(C(=O)O)cnn1-c1cccc(-c2cccc(C)c2OCc2ccc3c(c2)CCN([C@H]2CC[C@@]4(CCCO4)CC2)C3)n1` [Compound 103]: in data set [1], the “HLM (% Qh)” value is given as 25 % Qh. The compound also yielded an EC50 in data set [2] of 110 nM.
The like results for `CCOc1c(C(=O)O)cnn1-c1cccc(-c2cccc(C)c2OCc2cc(C)c3c(c2)CCN(C2CCCOC2)C3)n1` (stereo not shown) [Compound 173] were, in that order, under 24 % Qh and 13 nM.
As to `COc1c(C(=O)O)cnn1-c1cccc(-c2cccc(C)c2OCc2ccc3c(c2)CCN(C(C)C)C3)n1` [Compound 13], the “HLM (% Qh)” value in data set [1] is listed as under 24 % Qh. In addition, the EC50 in data set [2] is 180 nM.
In the same order, the values of `COc1c(C(=O)O)cnn1-c1cccc(-c2cccc(C)c2OCc2ccc3c(c2)CCN(CC(F)(F)F)C3)n1` [Compound 11, 5-methoxy-1-(6-{3-methyl-2-[2-(2,2,2-trifluoro-ethyl)-1,2,3,4-tetrahydro-isoquinolin-6-ylmethoxy]-phenyl}-pyridin-2-yl)-1H-pyrazole-4-carboxylic acid] are 47 % Qh and 17 nM.
With `CCOc1c(C(=O)O)cnn1-c1cccc(-c2cccc(C)c2OCc2ccc3c(c2C)CCN([C@H]2CCCOC2)C3)n1` [Compound 129], in data set [1], the “HLM (% Qh)” value is under 24 % Qh. In addition, it took 17 nM to reach a half-maximal effect in data set [2] (EC50).
In the same order, the values of `CCOc1c(C(=O)O)cnn1-c1cccc(-c2cccc(C)c2OCc2cc(C)c3c(c2)CN(C2CCOCC2)C3)n1` [Compound 118] are under 24 % Qh and 39 nM.
The like results for `COc1c(C(=O)O)cnn1-c1cccc(-c2cccc(C)c2OCc2cc3c(cc2C)CN(C2CCOCC2)CC3)n1` [Compound 121] were, in that order, under 24 % Qh and 40 nM.
In the same order, the values of `CCOc1c(C(=O)O)cnn1-c1cccc(-c2cccc(C)c2OCc2ccc3c(c2C)CCN(CCOCCO)C3)n1` [Compound 168] are under 24 % Qh and 580 nM.
Turning to `CCOc1c(C(=O)O)cnn1-c1cccc(-c2cccc(C)c2OCc2ccc3c(c2C)CCN(CC2CCOC(C)(C)C2)C3)n1` (stereo not shown) [Compound 163], in data set [1], the “HLM (% Qh)” value is on record as under 24 % Qh. In data set [2], this compound had an EC50 of 55 nM.
The like results for `COCCOc1c(C(=O)O)cnn1-c1cccc(-c2cccc(C)c2OCc2ccc3c(c2C)CCN(C2CCOC2)C3)n1` (stereo not shown) [Compound 150] were, in that order, under 24 % Qh and 91 nM.
In the same order, the values of `CCOc1c(C(=O)O)cnn1-c1cccc(-c2cccc(C)c2OCc2ccc3c(c2C)CCN(C2COC(C)(C)OC2)C3)n1` [Compound 155] are under 24 % Qh and 86 nM.
`Cc1cccc(-c2cccc(-n3ncc(C(=O)O)c3OC(C)C)n2)c1OCc1ccc2c(c1)CCN([C@@H]1CCCOC1)C2` [Compound 113]: the “HLM (% Qh)” value in data set [1] was under 24 % Qh. Further, the EC50 in data set [2] is 24 nM.
Take `CCOc1c(C(=O)O)cnn1-c1cccc(-c2cccc(C)c2OCc2ccc3c(c2C)CCN([C@@H]2CCCOC2)C3)n1` [Compound 128]: in data set [1], the “HLM (% Qh)” value is under 24 % Qh. Moreover, the EC50 in data set [2] came to 15 nM.
Consider `COc1c(C(=O)O)cnn1-c1cccc(-c2cccc(C)c2OCc2ccc3c(c2C)CCN(C2CCOCC2)C3=O)n1` [Compound 167, 5-Methoxy-1-(6-{3-methyl-2-[5-methyl-1-oxo-2-(tetrahydro-pyran-4-yl)-1,2,3,4-tetrahydro-isoquinolin-6-ylmethoxy]-phenyl}-pyridin-2-yl)-1H-pyrazole-4-carboxylic acid], for which the “HLM (% Qh)” value in data set [1] is reported as under 24 % Qh. The compound also yielded an EC50 in data set [2] of 30 nM.
In the same order, the values of `CCOc1c(C(=O)O)cnn1-c1cccc(-c2cccc(C)c2OCc2ccc3c(c2C)CCN([C@@H]2CCOC2)C3)n1` [Compound 126] are under 24 % Qh and 58 nM.
As for `CC[C@H](C)Oc1c(C(=O)O)cnn1-c1cccc(-c2cccc(C)c2OCc2ccc3c(c2C)CCN(C2CCCOC2)C3)n1` (stereo partly shown) [Compound 135], the “HLM (% Qh)” value in data set [1] is 29 % Qh. Moreover, in data set [2], the EC50 is 54 nM.
In the same order, the values of `COc1c(C(=O)O)cnn1-c1cccc(-c2cccc(C)c2OCc2ccc3c(c2)C(C)(C)CN(C2COC2)C3)n1` [Compound 10] are 30 % Qh and 16 nM.
As for `CCOc1c(C(=O)O)cnn1-c1cccc(-c2cccc(C)c2OCc2ccc3c(c2F)CCN(C2CCOCC2)C3)n1` [Compound 159], the “HLM (% Qh)” value in data set [1] is listed as under 24 % Qh. In data set [2], this compound registered an EC50 of 53 nM.
`CCOc1c(C(=O)O)cnn1-c1cccc(-c2cccc(C)c2OCc2ccc3c(c2CC)CCN(C2CCOCC2)C3)n1` [Compound 154]: the “HLM (% Qh)” value in data set [1] was under 24 % Qh. In addition, in data set [2], the EC50 stood at 28 nM.
In the same order, the values of `COc1c(C(=O)O)cnn1-c1cccc(-c2cccc(C)c2OCc2ccc3c(c2)OCCN(C2CCOCC2)C3)n1` [Compound 130] are 25 % Qh and 21 nM.
For the compound `CCOc1c(C(=O)O)cnn1-c1cccc(-c2cccc(C)c2OCc2ccc3c(c2)CCN([C@@H]2CCOC2)C3)n1` [Compound 112], the “HLM (% Qh)” value in data set [1] is recorded as under 24 % Qh. The compound further had an EC50 in data set [2] of 110 nM.
The like results for `COc1c(C(=O)O)cnn1-c1cccc(-c2cccc(C)c2OCc2ccc3c(c2)CCN(CC2(C)COC2)C3)n1` [Compound 12] were, in that order, under 24 % Qh and 26 nM.
As for `CCOc1c(C(=O)O)cnn1-c1cccc(-c2cccc(C)c2OCc2cc(C)c3c(c2)CCN(C2CCOCC2)C3)n1` [Compound 169], the “HLM (% Qh)” value in data set [1] is reported as under 24 % Qh. The compound also came in with an EC50 in data set [2] of 13 nM.
Take `COc1c(C(=O)O)cnn1-c1cccc(-c2cccc(C)c2OCc2ccc3c(c2C)CCN([C@@H]2CCCOC2)C3)n1` [Compound 140]: the “HLM (% Qh)” value in data set [1] is listed as under 24 % Qh. A half-maximal effect in data set [2] (EC50) was put at 15 nM.
With `CCOc1c(C(=O)O)cnn1-c1cccc(-c2cccc(C)c2OCc2ccc3c(c2C)CCN(CC2CCOCC2)C3)n1` [Compound 172], the “HLM (% Qh)” value in data set [1] is recorded as under 24 % Qh. Also, the response in data set [2] was half-maximal at 50 nM (EC50).
Consider `COc1c(C(=O)O)cnn1-c1cccc(-c2cccc(C)c2OCc2ccc3c(c2)CCN([C@H]2CC[C@]4(CCCO4)CC2)C3)n1` [Compound 102], for which the “HLM (% Qh)” value in data set [1] is under 24 % Qh. Besides, the EC50 in data set [2] was 110 nM.
The like results for `COc1c(C(=O)O)cnn1-c1cccc(-c2cccc(C(F)(F)F)c2OCc2ccc3c(c2)CCN(C2COC2)C3)n1` [Compound 9] were, in that order, under 24 % Qh and 59 nM.
For the compound `COc1c(C(=O)O)cnn1-c1cccc(-c2cccc(C)c2OCc2cc3c(c(C(F)(F)F)c2)CN(C2CCOCC2)CC3)n1` [Compound 158], the “HLM (% Qh)” value in data set [1] was under 24 % Qh. This compound also yielded an EC50 in data set [2] of 30 nM.
In the same order, the values of `COCCOc1c(C(=O)O)cnn1-c1cccc(-c2cccc(C)c2OCc2ccc3c(c2C)CCN(C2CCCOC2)C3)n1` (stereo not shown) [Compound 149] are under 24 % Qh and 44 nM.

Source of the values: patent US8906904B2, “Alkoxy pyrazoles as soluble guanylate cyclase activators” (Boehringer Ingelheim International GmbH, priority 2012, dated 2014).
